The numbers were not newly measured in patent publication US20230078230A1, “METHODS FOR THE PRODUCTION OF COMMITTED CARDIAC PROGENITOR CELLS” (FUJIFILM Cellular Dynamics, Inc., priority 2021, published 2023), which cites them from elsewhere.

A word on the IC50: it is the point on the concentration scale where inhibition reaches its midpoint.

Series [1] relates to pluripotent stem cell-derived cardiomyocytes.
Series [2] concerns ROCK1/ROCK2. The settings on record: ROCK1/ROCK2, competing with ATP.

As for `CC(C)NCC(O)c1ccc(O)c(O)c1` (stereo not shown) [isoprenaline], the “effect on contractile activity” value in series [1] was “positive chronotropic effect”.

Consider `CNC[C@H](O)c1cccc(O)c1` [phenylephrine], for which the “effect on contractile activity” value in series [1] is reported as “positive chronotropic effect”.

On to `C[C@@H](N)[C@H]1CC[C@H](C(=O)Nc2ccncc2)CC1` [Y-27632], for which, in series [2], the IC50 was 800 nM. Consider `COc1ccc([C@@H]2Sc3ccccc3N(CCN(C)C)C(=O)[C@@H]2OC(C)=O)cc1` [diltiazem], for which, in series [1], the “effect on contractile activity” value is listed as “inhibits contractile activity in a dose-dependent manner”.
